# Patent US6166067A, “Inhibitors of cholesterol-biosynthesis for reducing the cholesterol content of poultry eggs” (priority 1998, dated 2000)
# Key:
# triglycerides in yolk = assay: Triglycerides in egg yolk, laying-hen feeding trial (Example 2); assay type: in vivo, laying hens; details: control 170.4
# Experimental: (§1) The triglycerides are determined enzymatically via their glycerol content. The triglycerides are cleaved enzymatically by the enzymes lipase and esterase. The resulting glycerol is phosphorylated by ATP to glycerol 3-phosphate in the reaction catalyzed by glycerol kinase GK.
# (§2) Another feeding experiment was carried out in analogy to Example 1. In this case the intention was to test not only α- and δ-tocotrienol but also a tocotrienol precursor (4-oxo-γ-tocotrienol) and other terpenoids such as farnesyl acetate, perillyl alcohol, linalool and β-ionone, in laying hens.
# (§3) The trial protocol corresponds to that in Example 1 but with the following amendments:
# (§4) The number of birds comprised 8 hens per treatment.
# (§5) Triglyceride and cholesterol were determined in 4 independent yolk pools(each from 6 eggs) and plasma.
# cholesterol in yolk = assay: Cholesterol in egg yolk, laying-hen feeding trial (Example 2); assay type: in vivo, laying hens; details: for Cholesterol, yolk: control 10.23; for trend in yolk cholesterol content: Example 2; for reduction in yolk cholesterol: significant
# Excerpt: (§6) For the cholesterol determination, the cholesterol esters were cleaved to cholesterol and fatty acid by the action of cholesterol esterase. Free cholesterol is converted by atmospheric oxygen with the involvement of cholesterol oxidase into Δ^4 -cholestenone and hydrogen peroxide. The resulting hydrogen peroxide forms with 4-aminophenazone and phenol through the catalytic action of peroxidase a red dye whose intensity of color is directly proportional to the cholesterol concentration and can be measured at 500 to 550 nm.
# as §2, §3, §4, §5
# plasma triglyceride = assay: Triglycerides in plasma, laying-hen feeding trial (Example 2); assay type: in vivo, laying hens; details: for Triglycerides, plasma: control 2496; for reduction of plasma triglyceride level: Example 2, maximum
# Experimental: as §1, §2, §3, §4
# (§7) 4 birds in each case from the control and the high dosages were sacrificed at the end of the trial. After taking blood to obtain plasma, the birds were completely exsanguinated. The liver was then removed and deep frozen until analyzed.
# as §5
# plasma cholesterol = assay: Cholesterol in plasma, laying-hen feeding trial (Example 2); assay type: in vivo, laying hens; details: control 125.3
# Excerpt: as §6, §2, §3, §4, §7, §5
# tumors = details: cell culture and rats and mice; cited from earlier work
# HMG-CoA reductase = details: cell culture and rats and mice; cited from earlier work
# [1] = tested on: cholesterol content of poultry eggs; details: literature (Huggett et al.; Beyer and Jensen); cited from earlier work
# [2] = both dosages (100 and 1000 mg/kg feed)
compound,measurement,setting,value
"C=C(C)C1CC=C(CO)CC1 (centres unmarked) [Perillyl alcohol, perillyl alcohol]","Triglycerides, yolk",triglycerides in yolk; 500 mg/kg feed,188.5 mg/g
same,"Triglycerides, yolk",triglycerides in yolk; 5000 mg/kg feed,174.4 mg/g
same,"Cholesterol, yolk",cholesterol in yolk; 500 mg/kg feed,9.55 mg/g
same,"Cholesterol, yolk",cholesterol in yolk; 5000 mg/kg feed,9.53 mg/g
same,trend in yolk cholesterol content,cholesterol in yolk,trend toward reduced cholesterol contents in yolk
same,"Triglycerides, plasma",plasma triglyceride; 5000 mg/kg feed,2197 mg/dL
same,reduction of plasma triglyceride level,plasma triglyceride,≤ 25%
same,"Cholesterol, plasma",plasma cholesterol; 5000 mg/kg feed,165.3 mg/dL
"CC(=O)OC/C=C(\C)CC/C=C(\C)CCC=C(C)C [Farnesyl acetate, farnesyl acetate]","Triglycerides, yolk",triglycerides in yolk; 750 mg/kg feed,177.1 mg/g
same,"Triglycerides, yolk",triglycerides in yolk; 7500 mg/kg feed,175.9 mg/g
same,"Cholesterol, yolk",cholesterol in yolk; 750 mg/kg feed,10.15 mg/g
same,"Cholesterol, yolk",cholesterol in yolk; 7500 mg/kg feed,10.23 mg/g
same,"Triglycerides, plasma",plasma triglyceride; 7500 mg/kg feed,1929 mg/dL
same,reduction of plasma triglyceride level,plasma triglyceride,≤ 25%
same,"Cholesterol, plasma",plasma cholesterol; 7500 mg/kg feed,129.3 mg/dL
"CC(C)=CCC/C(C)=C/CO [geraniol, reference compound]",inhibition of tumors,tumors,inhibit tumors
same,inhibition of HMG-CoA reductase,HMG-CoA reductase,inhibit HMG-CoA reductase
"CC(=O)/C=C/C1=C(C)CCCC1(C)C [β-Ionone, β-ionone]","Triglycerides, yolk",triglycerides in yolk; 100 mg/kg feed,190.7 mg/g
same,"Triglycerides, yolk",triglycerides in yolk; 1000 mg/kg feed,184.8 mg/g
same,"Cholesterol, yolk",cholesterol in yolk; 100 mg/kg feed,9.03 mg/g
same,"Cholesterol, yolk",cholesterol in yolk; 1000 mg/kg feed,9.03 mg/g
same,reduction in yolk cholesterol,cholesterol in yolk; [2],up to 18%
same,inhibition of tumors,tumors,inhibit tumors
same,inhibition of HMG-CoA reductase,HMG-CoA reductase,inhibit HMG-CoA reductase
same,"Triglycerides, plasma",plasma triglyceride; 1000 mg/kg feed,1954 mg/dL
same,reduction of plasma triglyceride level,plasma triglyceride,≤ 25%
same,"Cholesterol, plasma",plasma cholesterol; 1000 mg/kg feed,201.3 mg/dL
C=C(C)[C@H]1CC=C(C)CC1 [d-limonene],inhibition of tumors,tumors,inhibit tumors
same,inhibition of HMG-CoA reductase,HMG-CoA reductase,inhibit HMG-CoA reductase
CCC(C)(C)C(=O)O[C@H]1C[C@@H](C)C=C2C=C[C@H](C)[C@H](CC[C@@H]3C[C@@H](O)CC(=O)O3)[C@H]21 [simvastatin],effect on the cholesterol content in eggs,[1],no effect
"CC(C)=CCC/C(C)=C/CC/C(C)=C/CCC1(C)CCc2cc(O)cc(C)c2O1 (centres unmarked) [δ-Tocotrienol, δ-tocotrienol]","Triglycerides, yolk",triglycerides in yolk; 50 mg/kg feed,185.2 mg/g
same,"Triglycerides, yolk",triglycerides in yolk; 500 mg/kg feed,163.9 mg/g
same,"Cholesterol, yolk",cholesterol in yolk; 50 mg/kg feed,9.25 mg/g
same,"Cholesterol, yolk",cholesterol in yolk; 500 mg/kg feed,9.23 mg/g
same,trend in yolk cholesterol content,cholesterol in yolk,trend toward reduced cholesterol contents in yolk
same,"Triglycerides, plasma",plasma triglyceride; 500 mg/kg feed,2985 mg/dL
same,"Cholesterol, plasma",plasma cholesterol; 500 mg/kg feed,163.0 mg/dL
"C=CC(C)(O)CCC=C(C)C (centres unmarked) [Linalool, linalool]","Triglycerides, yolk",triglycerides in yolk; 100 mg/kg feed,187.5 mg/g
same,"Triglycerides, yolk",triglycerides in yolk; 1000 mg/kg feed,163.1 mg/g
same,"Cholesterol, yolk",cholesterol in yolk; 100 mg/kg feed,8.40 mg/g
same,"Cholesterol, yolk",cholesterol in yolk; 1000 mg/kg feed,8.97 mg/g
same,reduction in yolk cholesterol,cholesterol in yolk; [2],up to 18%
same,inhibition of tumors,tumors,inhibit tumors
same,inhibition of HMG-CoA reductase,HMG-CoA reductase,inhibit HMG-CoA reductase
same,"Triglycerides, plasma",plasma triglyceride; 1000 mg/kg feed,1907 mg/dL
same,"Cholesterol, plasma",plasma cholesterol; 1000 mg/kg feed,211.6 mg/dL
"CC(C)=CCC/C(C)=C/CC/C(C)=C/CCC1(C)CC(=O)c2cc(O)c(C)c(C)c2O1 (centres unmarked) [4-Oxo-γ-tocotrienol, 4-oxo-γ-tocotrienol]","Triglycerides, yolk",triglycerides in yolk; 50 mg/kg feed,188.3 mg/g
same,"Triglycerides, yolk",triglycerides in yolk; 500 mg/kg feed,172.0 mg/g
same,"Cholesterol, yolk",cholesterol in yolk; 50 mg/kg feed,9.78 mg/g
same,"Cholesterol, yolk",cholesterol in yolk; 500 mg/kg feed,8.55 mg/g
same,reduction in yolk cholesterol,cholesterol in yolk; high dosage (500 mg/kg feed),up to 18%
same,"Triglycerides, plasma",plasma triglyceride; 500 mg/kg feed,4336 mg/dL
same,"Cholesterol, plasma",plasma cholesterol; 500 mg/kg feed,166.8 mg/dL
